Experimental data published in the supplement of paper PMC10307832.

What was measured:
Assay in all cases: relative viability (nuclei count vs DMSO), 5 days (fraction); higher = more cells survive
HCC-827 = system: HCC-827
Procedure, shortened: (§1)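 Values are medians from duplicate plates. Each reflects relative viability, defined as the nuclei count of treated wells over that of vehicle wells. Lung cancer cell lines in 1536-well plates were pin-tool dosed one day after seeding with one drug alone or with a fixed anchor-drug dose plus five library-drug doses (not always all listed) in √10 steps, then fixed, stained and imaged at 4× after 5 days.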

NCI-H2342 = system: NCI-H2342
Procedure, shortened: as §1

EKVX = system: EKVX
Procedure, shortened: as §1

NCI-H1734 = system: NCI-H1734
Procedure, shortened: as §1

NCI-H1975 = system: NCI-H1975
Procedure, shortened: as §1

LCLC-97TM1 = system: LCLC-97TM1
Procedure, shortened: as §1

NCI-H1355 = system: NCI-H1355
Procedure, shortened: as §1

PC-14 = system: PC-14
Procedure, shortened: as §1

NCI-H1650 = system: NCI-H1650
Procedure, shortened: as §1

NCI-H1563 = system: NCI-H1563
Procedure, shortened: as §1

PC-3 [JPC-3] = system: PC-3 [JPC-3]
Procedure, shortened: as §1

NCI-H322M = system: NCI-H322M
Procedure, shortened: as §1

CAL-12T = system: CAL-12T
Procedure, shortened: as §1

H3255 = system: H3255
Procedure, shortened: as §1

NCI-H1755 = system: NCI-H1755
Procedure, shortened: as §1

NCI-H661 = system: NCI-H661
Procedure, shortened: as §1

LK-2 = system: LK-2
Procedure, shortened: as §1

NCI-H2405 = system: NCI-H2405
Procedure, shortened: as §1

NCI-H520 = system: NCI-H520
Procedure, shortened: as §1

HCC-15 = system: HCC-15
Procedure, shortened: as §1

RERF-LC-KJ = system: RERF-LC-KJ
Procedure, shortened: as §1

NCI-H2228 = system: NCI-H2228
Procedure, shortened: as §1

For O=c1cc(-c2cccc3c2Sc2ccccc2S3)oc(N2CCOCC2)c1 + Cc1nc(Nc2ncc(C(=O)Nc3c(C)cccc3Cl)s2)cc(N2CCN(CCO)CC2)n1 [Dasatinib] (partner 0.075 µM), the relative viability (HCC-827; first compound 0.08 µM) was 0.285, the relative viability (HCC-827; first compound 0.253 µM) was 0.297 and the relative viability (HCC-827; first compound 0.8 µM) was 0.37. It also gave a relative viability (HCC-827; first compound 2.53 µM) of 0.276, a relative viability (HCC-827; first compound 8 µM) of 0.348 and a relative viability (NCI-H2342; first compound 0.08 µM) of 0.312. The relative viability (NCI-H2342; first compound 0.253 µM) was 0.309, the relative viability (NCI-H2342; first compound 0.8 µM) was 0.304 and the relative viability (NCI-H2342; first compound 2.53 µM) was 0.262. For the same molecule, the relative viability (NCI-H2342; first compound 8 µM) was 0.336, the relative viability (EKVX; first compound 0.08 µM) was 0.605 and the relative viability (EKVX; first compound 0.253 µM) was 0.517. For the same molecule, the relative viability (EKVX; first compound 0.8 µM) was 0.315, the relative viability (EKVX; first compound 2.53 µM) was 0.501 and the relative viability (EKVX; first compound 8 µM) was 0.355. It also gave a relative viability (NCI-H1734; first compound 0.08 µM) of 0.469, a relative viability (NCI-H1734; first compound 0.253 µM) of 0.49 and a relative viability (NCI-H1734; first compound 0.8 µM) of 0.503. The relative viability (NCI-H1734; first compound 8 µM) was 0.513, the relative viability (NCI-H1975; first compound 0.08 µM) was 0.355 and the relative viability (NCI-H1975; first compound 0.253 µM) was 0.35. For the same molecule, the relative viability (NCI-H1975; first compound 0.8 µM) was 0.219, the relative viability (NCI-H1975; first compound 2.53 µM) was 0.239 and the relative viability (NCI-H1975; first compound 8 µM) was 0.326. The relative viability (LCLC-97TM1; first compound 0.08 µM) was 0.899, the relative viability (LCLC-97TM1; first compound 0.253 µM) was 0.863 and the relative viability (LCLC-97TM1; first compound 0.8 µM) was 0.956. The relative viability (LCLC-97TM1; first compound 2.53 µM) was 0.749, the relative viability (LCLC-97TM1; first compound 8 µM) was 0.757 and the relative viability (NCI-H1355; first compound 0.08 µM) was 0.754. It also gave a relative viability (NCI-H1355; first compound 0.253 µM) of 0.619, a relative viability (NCI-H1355; first compound 0.8 µM) of 0.488 and a relative viability (NCI-H1355; first compound 2.53 µM) of 0.615. For the same molecule, the relative viability (NCI-H1355; first compound 8 µM) was 0.694, the relative viability (PC-14; first compound 0.08 µM) was 0.225 and the relative viability (PC-14; first compound 0.253 µM) was 0.217. For the same molecule, the relative viability (PC-14; first compound 0.8 µM) was 0.225, the relative viability (PC-14; first compound 2.53 µM) was 0.175 and the relative viability (PC-14; first compound 8 µM) was 0.253. The relative viability (NCI-H1650; first compound 0.08 µM) was 0.327, the relative viability (NCI-H1650; first compound 0.253 µM) was 0.339 and the relative viability (NCI-H1650; first compound 0.8 µM) was 0.259. For the same molecule, the relative viability (NCI-H1650; first compound 2.53 µM) was 0.241, the relative viability (NCI-H1650; first compound 8 µM) was 0.267 and the relative viability (NCI-H1563; first compound 0.08 µM) was 0.473. It also gave a relative viability (NCI-H1563; first compound 0.253 µM) of 0.454, a relative viability (NCI-H1563; first compound 0.8 µM) of 0.437 and a relative viability (NCI-H1563; first compound 2.53 µM) of 0.366. The relative viability (NCI-H1563; first compound 8 µM) was 0.467, the relative viability (PC-3 [JPC-3]; first compound 0.08 µM) was 1 and the relative viability (PC-3 [JPC-3]; first compound 0.253 µM) was 0.949. For the same molecule, the relative viability (PC-3 [JPC-3]; first compound 0.8 µM) was 1.07, the relative viability (PC-3 [JPC-3]; first compound 2.53 µM) was 0.828 and the relative viability (PC-3 [JPC-3]; first compound 8 µM) was 1.05. The relative viability (NCI-H322M; first compound 0.08 µM) was 0.251, the relative viability (NCI-H322M; first compound 0.253 µM) was 0.262 and the relative viability (NCI-H322M; first compound 0.8 µM) was 0.249. It also gave a relative viability (NCI-H322M; first compound 2.53 µM) of 0.253, a relative viability (NCI-H322M; first compound 8 µM) of 0.279 and a relative viability (CAL-12T; first compound 0.08 µM) of 0.339. For the same molecule, the relative viability (CAL-12T; first compound 0.253 µM) was 0.415, the relative viability (CAL-12T; first compound 0.8 µM) was 0.298 and the relative viability (CAL-12T; first compound 2.53 µM) was 0.34. For the same molecule, the relative viability (CAL-12T; first compound 8 µM) was 0.27, the relative viability (H3255; first compound 0.08 µM) was 0.334 and the relative viability (H3255; first compound 0.253 µM) was 0.288. For the same molecule, the relative viability (H3255; first compound 0.8 µM) was 0.363, the relative viability (H3255; first compound 2.53 µM) was 0.342 and the relative viability (H3255; first compound 8 µM) was 0.556. It also gave a relative viability (NCI-H1755; first compound 0.08 µM) of 0.434, a relative viability (NCI-H1755; first compound 0.253 µM) of 0.44 and a relative viability (NCI-H1755; first compound 0.8 µM) of 0.416. It also gave a relative viability (NCI-H1755; first compound 2.53 µM) of 0.324, a relative viability (NCI-H1755; first compound 8 µM) of 0.381 and a relative viability (NCI-H661; first compound 0.08 µM) of 0.779. The relative viability (NCI-H661; first compound 0.253 µM) was 0.938, the relative viability (NCI-H661; first compound 0.8 µM) was 0.761 and the relative viability (NCI-H661; first compound 2.53 µM) was 0.729. It also gave a relative viability (NCI-H661; first compound 8 µM) of 0.874, a relative viability (LK-2; first compound 0.08 µM) of 0.306 and a relative viability (LK-2; first compound 0.253 µM) of 0.252. The relative viability (LK-2; first compound 0.8 µM) was 0.267, the relative viability (LK-2; first compound 2.53 µM) was 0.145 and the relative viability (LK-2; first compound 8 µM) was 0.263. It also gave a relative viability (NCI-H2405; first compound 0.08 µM) of 0.183, a relative viability (NCI-H2405; first compound 0.253 µM) of 0.194 and a relative viability (NCI-H2405; first compound 0.8 µM) of 0.192. The relative viability (NCI-H2405; first compound 2.53 µM) was 0.179, the relative viability (NCI-H2405; first compound 8 µM) was 0.209 and the relative viability (NCI-H520; first compound 0.08 µM) was 0.181. For the same molecule, the relative viability (NCI-H520; first compound 0.253 µM) was 0.258, the relative viability (NCI-H520; first compound 0.8 µM) was 0.194 and the relative viability (NCI-H520; first compound 2.53 µM) was 0.172. The relative viability (NCI-H520; first compound 8 µM) was 0.213, the relative viability (HCC-15; first compound 0.08 µM) was 0.606 and the relative viability (HCC-15; first compound 0.253 µM) was 0.733. It also gave a relative viability (HCC-15; first compound 0.8 µM) of 0.546, a relative viability (HCC-15; first compound 2.53 µM) of 0.563 and a relative viability (HCC-15; first compound 8 µM) of 0.659. It also gave a relative viability (RERF-LC-KJ; first compound 0.08 µM) of 0.685, a relative viability (RERF-LC-KJ; first compound 0.253 µM) of 0.975 and a relative viability (RERF-LC-KJ; first compound 0.8 µM) of 0.918. It also gave a relative viability (RERF-LC-KJ; first compound 2.53 µM) of 0.758, a relative viability (RERF-LC-KJ; first compound 8 µM) of 0.74 and a relative viability (NCI-H2228; first compound 0.08 µM) of 0.547. The relative viability (NCI-H2228; first compound 0.253 µM) was 0.6, the relative viability (NCI-H2228; first compound 0.8 µM) was 0.625 and the relative viability (NCI-H2228; first compound 2.53 µM) was 0.402. For the same molecule, the relative viability (NCI-H2228; first compound 8 µM) was 0.51.
